From patent publication US20080161396A1, “Method of control of arthropod pests of game and pet birds” (priority 2006, published 2008)
Where “and” joins values, the source holds several entries; their conditions need not be identical. Equal entries are not always repeated. Entries after “also recorded” stand apart in the source; their conditions may differ.

Experiments:
ticks [1] = details: pour on; high tick site; cited from earlier work
[2] = Hen survival of treated and control red grouse hens; type: in vivo, red grouse (Lagopus lagopus scoticus); details: for % hens alive after 6 months: alive in October
Experimental: (§1) The experiment was conducted on two sites located in the North of Scotland (March-October). In outline, on each Moor, hens were either treated with permethrin leg bands or with untreated band. After hatching, chicks from treated hens were also tagged and treated with permethrin partagial bands, while chicks from control brood were tagged but not treated with permethrin. The experiment was conducted on Tullybeagles Estate in Perthshire (hereafter referred as to Moor 1) and Forest of Birse Estate on Deeside (hereafter Moor 2). Both Moors are managed for grouse (heather burning, predator control, worm control) and had low grouse densities and low productivity in recent years.
(§2) Catching and treatment of hens. In spring (18 March-6 April), 40 hens were caught on Moor 1 and 20 on Moor 2. Each was randomly assigned to one of two treatments. Half the birds caught at each site were treated (i.e., given acaracide leg bands, two per bird), or kept as control (untreated bands). Hens were fitted with radio collars (TW-3, Biotrack) to facilitate relocation. Birds were aged, weighed, wing length measured and condition score recorded. All hens were dosed with anthelminthic (Levamisole hydrochloride 3%) to remove nematode parasites. Nematodes are well known for their negative effects on grouse breeding success and survival (Hudson, 1986), so removing them standardized the birds for this possible source of variation.

ticks [3] = assay: Tick infestation of red grouse chicks after permethrin band treatment of hens and chicks (field experiment, two Moors); type: in vivo, Ixodes ricinus
Experimental: This experiment assessed the effect of ticks on grouse productivity. The experiment was replicated in two sites located in NE Scotland and Perthshire. On each Moor, hens were either treated with permethrin leg bands or with untreated bands. After hatching, chicks from treated hens were also treated and tagged with a permethrin band attached to a metal patagial tag, while chicks from control broods were tagged with only the metal patagial tags.
as §1, §2
(§3) Brood survival to 2 weeks +/−5 days and treatment of chicks. Hens were located by radio tracking and pointer dogs were used to locate chicks. As many chicks as possible were captured. […] Brood survival to 1 month days +/−5 days. Hens were located by radio tracking and pointer dogs were used to locate chicks. As many chicks as possible were captured. […] length and tick counts (around head and neck area) were recorded. A blood sample was collected in EDTA coated eppendorfs. At 1 month, because it was difficult to ensure that all the chicks were found during daytime visits with dogs, we also located hens and broods at night by radio tracking and broods were counted using lamp. This provided the best estimate of brood size at 1 month, which was used in subsequent analyses.
(§4) Statistical analyses. Tick numbers were modeled using generalized linear mixed models with brood as a random effect and using a poisson error distribution. Tick burdens are known to be much less variable within broods than between broods (Elston et al., 2001). The seasonal pattern was investigated by fitting time as julian day (days from 1st January) and the asymptotic pattern in the data was captured using a quadratic function of julian day (julian day*julian day). The interaction between time and treatment was used to determine if the pattern of tick burden varied between treatments. The relationship between tick burden and age was investigated using chick age as number of days post hatching and the quadratic function of chick age to investigate if there was a significant asymptotic relationship between average brood tick abundance and chick age (a rise and fall in tick numbers in relation to age). Hatching success was modeled using logistic regression (binomial error structure) with the proportion of eggs that hatched as a proportion of the total clutch size as the response variable. Brood survival was modeled using logistic regression (binomial error structure) with the proportion of chicks alive as a proportion of the number of chicks that hatched as the response variable. […]

[4] = Breeding success, brood size, chick survival and chick growth of red grouse (treated vs control hens/broods); type: in vivo, red grouse (Lagopus lagopus scoticus); details: for Breeding success (%): only hens alive at the end of breeding season
Experimental: as §1, §2
Laying time. Nests were located by radio tracking and their location recorded using GPS. Clutch size was measured, and all eggs were weighed (with an electronic balance, to the nearest 0.1 g) and measured (length by width, with a caliper, to the nearest 0.1 mm). Egg density was used to estimate hatch dates (see Seivwright, 2004). If clutches were incomplete at first visit, nests were revisited.
Hatching success. Around predicted hatch date (from egg measurements), nests were located using GPS and number of hatched and un-hatched eggs were recorded. Broods were located by radio-tracking hens and chicks were found and counted with the aid of trained pointer dogs.
as §3
Brood size at fledging. Hens were located at around 45 days post hatching. Broods were then flushed and number of chicks was counted.
as §4, with “age).” for “age). Hatching success was modeled using logistic regression (binomial error structure) with the proportion of eggs that hatched as a proportion of the total clutch size as the response variable. Brood survival was modeled using logistic regression (binomial error structure) with the proportion of chicks alive as a proportion of the number of chicks that hatched as the response variable.”

CC1(C)[C@H](C(=O)O[C@H](C#N)c2cccc(Oc3ccccc3)c2)[C@@H]1C=C(Br)Br [deltamethrin]
duration of short term effects (ticks [1]): up to 20 days
time by which the effect had waned (ticks [1]): ≤ 40 days

CC1(C)C(C=C(Cl)Cl)C1C(=O)OCc1cccc(Oc2ccccc2)c1 (stereo not drawn) [permethrin]
% hens alive after 6 months ([2]; Moor 1, treated hens): 68.4% and 60%
% hens alive after 6 months ([2]; Moor 2, treated hens): 60% and 68%
hen survival, treated compared with control hens ([2]; overall, FIG. 6): did not differ
tick infestation rates of treated chicks compared with untreated chicks from treated mothers (ticks [3]; across season, FIG. 1): significantly lower
number of chicks with patagial treatment band found with ticks (ticks [3]; chicks carrying patagial band): one
average tick counts on treated chicks compared with control chicks (ticks [3]; chicks with permethrin patagial band, taking into account seasonal pattern, FIG. 1): significantly lower
average ticks per chick in untreated chicks from treated hens compared with control broods (ticks [3]; hen treatment only (leg bands), across the season, FIG. 1): significantly lower
tick infestation in untreated chicks from treated hens compared with controls in relation to chick age (ticks [3]; hen treatment only, by chick age, FIG. 2): significantly lower
tick infestation levels in untreated chicks from treated hens (ticks [3]; hen treatment only, discussion summary): very low
peak tick numbers in untreated chicks from treated hens relative to controls (ticks [3]; hen treatment only, fraction of that found in controls): about one third
peak tick numbers in untreated chicks from treated hens (ticks [3]; hen treatment only, seasonal pattern): around 4 ticks per chick
tick infestation rates of treated chicks compared with untreated chicks from treated mothers (ticks [3]; in relation to chick age): no significant difference
maximum mean infestation rate in the treated group (ticks [3]; treated chicks, age 0 to 55 days, FIG. 2, control around 12): less than 2 ticks per chick
tick numbers of treated chicks compared with controls in relation to age (ticks [3]; treated chicks, age range 0 to 55 days, FIG. 2): significantly lower
tick infestation after directly treating chicks with acaracide (ticks [3]; treated chicks, discussion summary): negligible levels
peak average tick numbers per chick in the treated group (ticks [3]; treated chicks, seasonal pattern, FIG. 1, control peak around 13): 2 ticks per chick per brood
effect of treatment on growth (wing length or body mass) of chicks ([4]; Moor 1 & 2 combined, FIG. 4): no effect; also recorded: did not differ
Breeding outcome (success %) ([4]; Moor 1, treated): (21.5%)
Breeding outcome = Total number of young fledged ([4]; Moor 1, treated): 40
Brood size at 1 month ([4]; Moor 1, treated): 3.6 ± 2.9
Brood size at 2 weeks ([4]; Moor 1, treated): 6.0 ± 2.7
Brood size at fledging ([4]; Moor 1, treated): 2.7 ± 2.9
Hatched brood size ([4]; Moor 1, treated): 8.5 ± 3.2
Breeding success (%) ([4]; Moor 1, treated): 35.9 ± 27.2%
Breeding outcome (success %) ([4]; Moor 2, treated): (10.9%)
Breeding outcome = Total number of young fledged ([4]; Moor 2, treated): 5
Brood size at 1 month ([4]; Moor 2, treated): 2.0 ± 2.0
Brood size at 2 weeks ([4]; Moor 2, treated): 3.4 ± 1.0
Brood size at fledging ([4]; Moor 2, treated): 1.0 ± 1.2
Hatched brood size ([4]; Moor 2, treated): 8.1 ± 2.4
Breeding success (%) ([4]; Moor 2, treated): 12.8 ± 13.7%
effect of hen treatment on number of eggs that hatched as a proportion of the clutch size (hatching success) ([4]; both Moors): no effect
effect of treatment on brood size at 1 month of age ([4]; both Moors): no effect
effect of treatment on brood size at 2 weeks of age ([4]; both Moors): no effect
effect of treatment on brood size at fledging ([4]; both Moors, late July): no effect
effect of treatment on chick survival rates ([4]; discussion summary): no effect
hatched chicks alive at approximately 2 weeks of age ([4]; treated group (CL=57-71%), control 58%): 65%
